Source: US20160367961A1, “METHOD AND COMPOSITION FOR PEPTIDE C[…] PROTEASE TREATMENT” (Roche Sequencing Solutions, Inc., priority 2015, published 2016)
Square brackets hold non-standard residues; d marks the D form. Peptide text beside a SMILES is read from it.

Tests used:
streptavidin = streptavidin (Streptomyces avidinii, UniProt P22629); assay: biochemical
Description: Surface plasmon resonance (SPR) experiments were performed on a BIAcore X100 (GE Healthcare). The running buffer was HBS-EP+. To prepare a streptavidin coated chip, 100 ug/mL streptavidin in Acetate 5.0 immobilization buffer was coupled to flow cell 2 of a CM5 chip using the Amine Coupling Kit (GE Healthcare. The chip was then conditioned by flowing a solution containing 0.2 M NaCl and 10 mM NaOH in water over the prepared chip for 60 seconds. The binding affinities of the cyclic and linear peptides were measured against the prepared streptavidin chip using a multiple cycle experiment with base regeneration between each step. Here, seven prepared concentrations of peptide in HBS-EP+ buffer were flowed over the streptavidin chip for 30 seconds and then allowed to dissociate for 60 seconds. Following each peptide concentration, the streptavidin chip was regenerated by flowing 0.2 M NaCl and 10 mM NaOH in water over the chip for 30 seconds followed by a stabilization period of 120 seconds. Kinetic parameters were determined using BIAcore X100 Evaluation Software Version 2.0.1.

streptavidin-Cy5 = streptavidin-Cy5 (Streptomyces avidinii, UniProt P22629); assay: Streptavidin-Cy5 binding to cyclic/linear peptide microarray, Cy5 fluorescence scan
Sequence of streptavidin-Cy5 (P22629 25-183): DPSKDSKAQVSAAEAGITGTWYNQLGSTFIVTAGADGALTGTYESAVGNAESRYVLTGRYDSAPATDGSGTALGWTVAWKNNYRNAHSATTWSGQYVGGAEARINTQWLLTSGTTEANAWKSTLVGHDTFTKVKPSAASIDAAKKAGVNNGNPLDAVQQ
Description: Slides were bound with […] streptavidin-Cy5 in 30 mL binding buffer for 30 minutes at room temperature. Binding buffer contained 1% alkali soluble casein and 0.05% tween-20 in 1×TBS, pH 7.4. After 30 minutes, slides were washed twice in 1×TBS buffer for 1 minute, water for 30 seconds, and spun to dryness.
Cy5 fluorescence intensity of the arrays was measured with MS200 scanner (Roche NimbleGen) at resolution 2 um, wavelength 635 nm, gain 25% and laser intensity 100%. Cy5 signal intensities were extracted using Image Extraction Software (Roche NimbleGen). Data pre-processing, normalization and statistical tests were done in R. Data visualization and analysis were performed with Spotfire 6.5.0 (Tibco, Boston, Mass.) software platform.

[1] = extension of HPQ-specific design JXXHPQXXJU, all J combinations (Example 12), FIG. 15

Sequence of streptavidin (P22629 25-183, species assumed): as the sequence (P22629 25-183) above

Molecule | Kd (streptavidin) | also measured
CC(C)C[C@@H]1NC(=O)[C@H](CCC(N)=O)NC(=O)CNC(=O)CNC(=O)[C@H](CC(N)=O)NC(=O)[C@H](CCC(N)=O)NC(=O)[C@@H]2CCCN2C(=O)[C@H](Cc2c[nH]cn2)NC(=O)[C@H](CC(=O)O)NC(=O)[C@H](Cc2ccc(O)cc2)NC1=O [cyclic LYDHPQNGGQ, LYDHPQNGGQ] (cyclo(DHPQNGGQLY)) | 9.4 µM | –
NC(=O)CC[C@@H]1NC(=O)[C@H](Cc2c[nH]c3ccccc23)NC(=O)[C@H]2CCCN2C(=O)[C@H](CCC(N)=O)NC(=O)[C@H](CC(N)=O)NC1=O [cyclic NQpWQ, NQpWQ] (cyclo(NQ[dP]WQ)) | 61.3 µM | –
NC(=O)CC[C@@H]1NC(=O)CNC(=O)CNC(=O)[C@H](CC(N)=O)NC(=O)[C@H](CCC(N)=O)NC(=O)[C@@H]2CCCN2C(=O)[C@H](Cc2c[nH]cn2)NC(=O)[C@H](CC(=O)O)NC(=O)[C@H](CC(N)=O)NC(=O)[C@H](CCC(N)=O)NC1=O [cyclic QNDHPQNGGQ, QNDHPQNGGQ] (cyclo(DHPQNGGQQN)) | 10.8 µM | –
NC(=O)CC[C@H](NC(=O)[C@H](Cc1c[nH]c2ccccc12)NC(=O)[C@H]1CCCN1C(=O)[C@H](CCC(N)=O)NC(=O)[C@@H](N)CC(N)=O)C(=O)O [linear NH2-NQpWQ-COOH, NH2-NQpWQ-COOH] (H-NQ[dP]WQ-OH) | > 2000 µM | –
H-LYDHPQNGGQ-OH [linear NH2-LYDHPQNGGQ-COOH, NH2-LYDHPQNGGQ-COOH] | 100 µM | –
H-QNDHPQNGGQ-OH [linear NH2-QNDHPQNGGQ-COOH, NH2-QNDHPQNGGQ-COOH] | 320 µM | –
LYDHPQNGGU (cyclo(LYDHPQNGGE); also: position 10: U in name, array-bound via glutamate side chain) [cylic LYDHPQNGGU, U = glutamate attached to the surface through its side chain] | – | cyclic fluorescent intensity (streptavidin-Cy5; [1]): highest cyclic intensity
NQpWU (cyclo(NQ[dP]WE); also: position 5: U in name, array-bound via glutamate side chain) [cylic NQpWU, U = glutamate attached to the surface through its side chain, p = D-proline] | – | cyclic fluorescent intensity (streptavidin-Cy5; peptide library of the format XXXXU (Example 9), cyclic subarray, FIG. 10): highest cyclic fluorescent intensity
QNDHPQNGGU (cyclo(QNDHPQNGGE); also: position 10: U in name, array-bound via glutamate side chain) [cyclic QNDHPQNGGU, U = glutamate attached to the surface through its side chain] | – | log fold change (logFC) between cyclic and linear fluorescent intensity (streptavidin-Cy5; extension of HPQ-specific design JXXHPQXXJU (Example 12), FIG. 15, positive logFC = preference for cyclic peptide): high logFC; cyclic fluorescent intensity (streptavidin-Cy5; [1]): high cyclic intensitiy
